Test results: article PMC6553477 (Journal of pharmaceutical sciences, 2018)
Several values for one entry are separate records, joined by “and”; a condition that tells them apart may be missing. Equal values may be shown once. Read-outs that look alike come from different tables or passages of the source. Marks after values point to notes of the source that are not given here.

Columns and labels:
[1] = Drug association efficiency to DcNP by equilibrium dialysis; assay type: physicochemical; details: ATV-RTV-TFV DcNP, DSPC-DSPE-mPEG2000 (9:1)
[2] = Mechanism-based pharmacokinetic; assay type: in vivo, Macaca nemestrina; details: MBPK model
[3] = in vivo, sc; for time concentrations were sustained in plasma: macaque (Macaca nemestrina)
[4] = in vivo
[5] = system: HIV; details: read-out: in vitro effective concentration that produces 90% of the maximal effect (EC90); reported in vitro; cited from earlier work
[6] = system: HIV-1 protease; details: reported; cited from earlier work
[7] = PBMC intracellular drug concentrations after single subcutaneous injection; details: for fold higher AUCPBMC, DcNP versus free drug: ATV-RTV-TFV DcNP compared with free form; for fold higher AUCPBMC, DcNP versus free drug / AUC: macaques; for AUC: monkey, sc, AUCPBMC, ATV-RTV-TFV DcNP, single subcutaneous dose, geometric mean (95% CI)
[8] = for MBRT / CL/F: ATV-RTV-TFV DcNP; for MBRT / half-life: plasma; for half-life: monkey, in vivo
[9] = for concentration at 192 h: concentration in LNMCs at 192 h after injection
[10] = in vivo, sc, cited from earlier work
[11] = monkey, in vivo, sc; cited from earlier work
[12] = in vivo; details: Macaca nemestrina (macaque), sc, LNMC/plasma ratio 192 h
[13] = cited from earlier work; for LNMC concentration 24 h / LNMC concentration 192 h: in vivo, sc
[14] = system: HIV; details: read-out: in vivo EC50; nonhuman primates; cited from earlier work
[15] = ATV-RTV-TFV DcNP versus TLC-ART 101
[16] = macaque (Macaca nemestrina), sc
[17] = ATV-RTV-TFV DcNP compared with free form, macaques
[18] = single subcutaneous dose, macaques, geometric mean (95% CI)
[19] = sc, Terminal t1/2, ATV-RTV-TFV DcNP, single subcutaneous dose, macaques, geometric mean (95% CI)
[20] = ATV-RTV-TFV DcNP compared with free form, macaques, 24 h
[21] = ATV-RTV-TFV DcNP, subcutaneous, macaques, 24 h
[22] = TLC-ART 101, subcutaneous, macaques, 24 h
[23] = TLC-ART 101, subcutaneous, macaques, 192 h

Row | Compound | % Association to DcNP [1] | K07, rate of elimination ([2]; Atazanavir-DcNP) | V5_DcNP, central compartmental apparent volume for DcNP ([2]; Atazanavir-DcNP) | V7_Free, central compartmental apparent volume for free drug ([2]; Atazanavir-DcNP) | k21, rate of DcNP absorption into the first delayed compartment ([2]; Atazanavir-DcNP) | k31, rate of DcNP absorption into the second delayed compartment ([2]; Atazanavir-DcNP) | k41, rate of DcNP absorption into the third delayed compartment ([2]; Atazanavir-DcNP) | k75, rate of degradation of DcNP into free drug between central compartments ([2]; Atazanavir-DcNP) | tlag1, delayed constant of delayed compartment 1 ([2]; Atazanavir-DcNP) | tlag2, delayed constant of delayed compartment 2 ([2]; Atazanavir-DcNP) | tlag3, delayed constant of delayed compartment 3 ([2]; Atazanavir-DcNP) | time concentrations were sustained in plasma [3] | time drug concentration in PBMCs was sustained [4, 16] | fold higher AUCPBMC, DcNP versus free drug [7] [fold] | AUC ([7]; PBMC (intracellular)) [µM·h] | fold higher plasma AUC, DcNP versus free drug [8, 17] [fold] | fold longer MBRT, DcNP versus free drug [8, 17] [fold] | MBRT [8, 18] | CL/F [8, 18] | half-life [8, 19] [days] | also measured
1 | COC(=O)N[C@H](C(=O)N[C@@H](Cc1ccccc1)[C@@H](O)CN(Cc1ccc(-c2ccccn2)cc1)NC(=O)[C@@H](NC(=O)OC)C(C)(C)C)C(C)(C)C [ATV, atazanavir] | 99 ± 8.2% and 99 ± 8% | 0.29 (-) 1/h | 1259^a (569-1680) L/kg | 113 (97-133) L/kg | 0.15 (0.1-0.3) 1/h | 0.05 (-) 1/h | 0.7 (-) 1/h | 0.04^a (0.01-0.06) 1/h | 0.25 (-) h | 16 (9-25) h | 440 (336-520) h | up to 14 days | up to 336 h | 33 | 435 | 5 | 116 | 650 (370-1230) h | 11^a (8-13) L/[h·kg] | 19.5 | fold higher V5_DcNP for ATV than LPV [2, 15]: 180 fold; fold lower k75 for ATV than LPV [2, 15]: 18 fold; EC90 [5]: 13 nM; fold higher antiretroviral activity compared with several other commercialized protease inhibitors [6]: 2- to 20 fold; fold higher PBMC exposure (AUCPBMC) of ATV than LPV ([7]; ATV-RTV-TFV DcNP versus TLC-ART 101, macaques): 5.5 fold; fold lower CL/F, DcNP versus free drug [8, 17]: 4 fold; fold higher CL/F, free ATV compared with free LPV ([8]; free drugs, macaques): 9 fold; fold lower AUC, free ATV compared with free LPV ([8]; free drugs, macaques): 8 fold; half-life ([8]; terminal half-life, DcNP ATV, macaques (Table 2)): ~20 days; fold higher intracellular LNMC concentration at 24 h, DcNP versus free drug [9, 20]: 3 fold; fold lower LNMC-to-plasma ratio at 24 h, DcNP versus free drug [9, 20]: 4 fold; fold higher intracellular LNMC concentration at 192 h, DcNP versus free drug ([9]; ATV-RTV-TFV DcNP compared with free form, macaques, 192 h): 3 fold; intracellular LNMC concentration at 192 h ([9]; ATV-RTV-TFV DcNP, macaques, 192 h): 0.09 mμM; LNMC concentration 24 h [9, 21]: 0.10 (0.04-0.24) μM; LNMC/PBMC ratio 192 h ([9]; ATV-RTV-TFV DcNP, subcutaneous, macaques, 192 h, n=2): 2.4^b; intracellular LNMC concentration at 192 h ([9]; free drug, macaques, 192 h): 0.03 mμM; concentration at 24 h ([9]; macaque (Macaca nemestrina), lymph node mononuclear cells (LNMC), sc, concentration in LNMCs at 24 h after injection, ATV-RTV-TFV DcNP, subcutaneous, primates, 24 h): 100 nM; concentration at 192 h ([9]; macaque (Macaca nemestrina), lymph node mononuclear cells (LNMC), sc, ATV-RTV-TFV DcNP, subcutaneous, primates, 192 h): 90 nM
2 | Cc1cccc(C)c1OCC(=O)N[C@@H](Cc1ccccc1)[C@@H](O)C[C@H](Cc1ccccc1)NC(=O)[C@H](C(C)C)N1CCCNC1=O [LPV, lopinavir] |  |  |  |  |  |  |  |  |  |  |  |  |  |  |  |  |  |  |  |  | AUC (plasma, extrapolated to infinity) [10]: 4.8 (4.2-4.6)^c h·μM; CL/F ([10]; monkey): 5 L/[h·kg]; Terminal t1/2 ([10]; monkey): 8.7 (5.3-10.4)^c h; AUCPBMC [11]: 22 (10-33)^c h·μM
3 | CC(C)c1nc(CN(C)C(=O)N[C@H](C(=O)N[C@@H](Cc2ccccc2)C[C@H](O)[C@H](Cc2ccccc2)NC(=O)OCc2cncs2)C(C)C)cs1 [RTV, ritonavir] | 92 ± 7.1% and 92 ± 7% | 0.08 (0.03-0.12) 1/h | 67 (22-94) L/kg | 79 (56-122) L/kg | 0.40 (0.35-0.46) 1/h | 0.05 (-) 1/h | 0.5 (-) 1/h | 0.19 (0.06-0.26) 1/h | 0.3 (-) h | 41 (35-46) h | 186 (169-199) h | up to 14 days | up to 336 h |  | 85 |  |  | 110 (46-266) h | 4 L/[h·kg] | 3.04 | last PBMC concentration timepoint detected ([4]; macaque (Macaca nemestrina)): 48 h; Kp at 192 h [12]: 23; LNMC concentration 24 h [13]: 6.3^a (4.4-8.5) μM; LNMC concentration 192 h [13]: 1.00 (0.06-2.00) μM; AUC ([7]; PBMC, PBMC intracellular): 79 µM·h; LNMC concentration 24 h [9, 21]: 0.40^a (0.06-3.00) μM; LNMC concentration ([9]; RTV in ATV-RTV-TFV DcNP, macaques, unit as printed in text (Table 4: 24 h)): 0.4 mM
4 | C[C@H](Cn1cnc2c(N)ncnc21)OCP(=O)(O)O [TFV, 9-(2-Phosphonyl-methoxypropyly)adenine] | 10 ± 0.8% and 10 ± 1% | 0.4 (0.08-2) 1/h | 0.7 (0.5-0.9) L/kg | 1.1 (0.8-1.3) L/kg | 0.05 (-) 1/h | 0.1 (-) 1/h | 0.15 (-) 1/h | 0.026 (0.009-0.03) 1/h | 1 h | 23 (-) h | 106 (76-132) h | up to 14 days | up to 192 h | 5 |  | 35 | 41 | 128 (65-254) h | 0.004 (0.002-0.015) L/[h·kg] | 2.75 | k76, rate of absorption of free drug ([2]; Atazanavir-DcNP): 1.7 (0.6-2.5) 1/h; k78, rate from periphery to central free compartment ([2]; Atazanavir-DcNP): 0.06 (-) 1/h; k87, rate from central free compartment to periphery ([2]; Atazanavir-DcNP): 0.02 (-) 1/h; AUC (plasma, extrapolated to infinity) ([3]; monkey): 3057 (1029-9078) h·μM; AUCPBMC ([4]; monkey, sc): 1134 (588-1554) h·μM; EC50 [14]: 49 nM; LNMC/PBMC ratio 24 h [13, 22]: 0.93 (0.39-2.3); LNMC/plasma ratio 24 h [13, 22]: 3 (1.5-5.3); LNMC/PBMC ratio 192 h [13, 23]: 4.4 (0.45-340.0); LNMC/plasma ratio 192 h [13, 23]: 6.8 (1.4-75); LNMC concentration 24 h [13]: 25 (14-47) μM; LNMC concentration 192 h [13]: 19 (3.6-280) μM; fold longer apparent t1/2, DcNP versus free drug [8, 17]: 7 fold; fold lower CL/F, DcNP versus free drug [8, 17]: 23 fold; LNMC/PBMC ratio 24 h ([9]; free drug combination, subcutaneous, macaques, 24 h): 1.8^d; concentration at 192 h ([9]; macaque (Macaca nemestrina), in vivo, sc, ATV-RTV-TFV DcNP, subcutaneous, primates, 192 h): 130 nM
